In US7625889B2, “Substituted bis aryl and heteroaryl compounds as selective 5HT2A antagonists” (Aventis Pharmaceuticals Inc., priority 2005, dated 2009):

What was measured:
5HT2A receptor site = biological target: T1, 5HT2A receptor site (Mus musculus, UniProt P35363); assay: Head Twitch Assay (5-MeODMT induced head twitch); type: in vivo; settings: for ED50: mouse, sc, dose blocking 5-MeODMT (30 mg/kg i.p.) head twitch in 50% of male mice; for % effect @ 3 mg/kg: 3 mg/kg sc
T1 construct: from tissue; host or cells: live male mice (whole animal)
Experimental: This Example 177 illustrates the study of efficacy of the compounds of this invention at the 5HT2A receptor site in animal models.
5-MeODMT (5-Methoxy-N,N-dimethyltryptamine) Inhibition: Groups of male mice are administered test compounds at selected doses. At an appropriate interval thereafter, 5-MeODMT (dissolved in 0.5% ascorbic acid) is administered at a dose of 30 mg/kg i.p. Immediately after administration of 5-MeODMT, and continuing for the following 6 min, the number of head twitches for each animal is counted. […] The ED50 is calculated as the dose necessary to block head twitch in 50% of the test animals. All experiments are performed with at least 10 animals per condition.

human 5HT2A receptor = biological target: T2, human 5HT2A receptor (Homo sapiens, UniProt P28223); assay: Receptor Binding Assay, 5HT2A ([3H]N-methyl spiperone); settings: BHK cells expressing human 5HT2A receptor, 2.5 nM [3H]N-methyl spiperone, 37° C.
T2 construct: expressed in transfected cells
Experimental: Cell Culture: BHK cells stably expressing the human 5HT2A receptor were maintained in Dulbecco's Modified Eagle's Medium supplemented with […] Geneticin, 1% Sodium Pyruvate, 1% Pen-Strep and 10% Fetal Calf Serum, and treated with 5 mM sodium butyrate for 24 h to increase receptor expression before harvesting. Cells were harvested by mechanical scraping, washed with Phosphate Buffered Saline, and stored at −80° C. in 10% DMSO in 1 mg/mil aliquots until used. Protein determination was made according to Lowry.
Receptor Binding Assays: The 5HT2A and D2L assays were conducted at 37° C. in a Tris buffer containing salts (50 mM Tris Buffer, pH 7.7; 120 mM NaCl; 5 mM KCl; 2 mM CaCl2; 1 mM MgCl2). Cell membranes (previously prepared and frozen) were rapidly thawed. Membranes were diluted to an appropriate concentration (to produce 100 μg protein/assay point for 5HT2A, and 58 μg protein/assay point for D2L) in Tris buffer and homogenized. Assays were conducted on 96-well plates, using 2.5 and 1 nM [^3H]N-methyl spiperone as radioligand for 5HT2A and D2L assays, respectively. Plates were incubated at 37° C. in a shaking water bath for 30 and 60 min, for 5HT2A and D2L, respectively. Nonspecific binding was defined using 100 μM methylsergide and eticlopride, for 5HT2A and D2L, respectively.
Assays were terminated by rapid filtration through Millipore MAFB or MAFC (5HT2C) filter plates (presoaked in 50 mM Tris HCl, pH 7.7, with 0.1% Brij) using a Millipore Cell Harvester. The filter plates were then washed with ice-cold 50 mM Tris buffer, pH 7.7, and allowed to dry overnight. 50 μl of Microscint scintillation cocktail were added and the plates were counted in a Packard Topcount scintillation counter.
IC50 and Ki calculations were performed using nonlinear regression one-site competition analysis (GraphPad, Prism), with top and bottom limits held constant at 0% and 100% inhibition, respectively. The percent inhibition at each drug concentration was the average of duplicate determinations. Except where indicated, each determination was performed 2 to 5 times.

T1 sequence (P35363 whole entry): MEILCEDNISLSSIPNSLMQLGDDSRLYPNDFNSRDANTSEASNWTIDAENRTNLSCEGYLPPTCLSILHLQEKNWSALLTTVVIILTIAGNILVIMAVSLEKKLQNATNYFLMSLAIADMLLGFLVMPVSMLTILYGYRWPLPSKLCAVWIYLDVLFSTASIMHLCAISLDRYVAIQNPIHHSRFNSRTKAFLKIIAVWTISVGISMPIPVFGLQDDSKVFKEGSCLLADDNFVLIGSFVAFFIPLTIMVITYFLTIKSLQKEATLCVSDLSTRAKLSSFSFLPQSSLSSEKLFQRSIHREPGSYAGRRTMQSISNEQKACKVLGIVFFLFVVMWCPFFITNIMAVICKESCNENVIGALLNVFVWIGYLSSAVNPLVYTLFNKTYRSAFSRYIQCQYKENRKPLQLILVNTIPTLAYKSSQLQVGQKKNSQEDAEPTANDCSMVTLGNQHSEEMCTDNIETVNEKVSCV
T2 sequence (P28223 whole entry): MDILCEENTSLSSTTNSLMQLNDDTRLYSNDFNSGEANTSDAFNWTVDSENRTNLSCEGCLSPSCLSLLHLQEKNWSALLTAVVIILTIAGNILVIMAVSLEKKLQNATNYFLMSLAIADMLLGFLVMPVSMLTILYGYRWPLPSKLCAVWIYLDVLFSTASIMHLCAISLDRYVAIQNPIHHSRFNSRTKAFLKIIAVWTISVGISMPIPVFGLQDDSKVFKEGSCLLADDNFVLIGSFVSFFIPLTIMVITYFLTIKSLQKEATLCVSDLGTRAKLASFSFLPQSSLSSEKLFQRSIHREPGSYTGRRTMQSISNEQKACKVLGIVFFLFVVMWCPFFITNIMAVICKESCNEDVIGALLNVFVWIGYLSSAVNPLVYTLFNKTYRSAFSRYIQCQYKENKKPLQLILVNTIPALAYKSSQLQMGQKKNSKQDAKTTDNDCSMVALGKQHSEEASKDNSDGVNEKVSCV

Row | Structure (SMILES) | ED50 (5HT2A receptor site) [mg/kg] | Ki (human 5HT2A receptor) [nM] | % effect @ 1 mg/kg (5HT2A receptor site; 1 mg/kg sc, head twitch, male mice) [%] | % effect @ 3 mg/kg (5HT2A receptor site; head twitch, male mice) [%]
1 | CC(=O)O.CN1CCN(Cc2cc(-c3ccc4[nH]ncc4c3)ccc2F)[C@@H](c2cccs2)C1 [Example 159, 5-[4-Fluoro-3-(4-methyl-2R-thiophen-2-yl-piperazin-1-ylmethyl)-phenyl]-1H-indazole acetate] | 0.04 | – | – | –
2 | CC(=O)O.CN1CCN(Cc2cncc(-c3ccc4[nH]ccc4c3)c2)[C@@H](c2ccc(F)cc2)C1 [Example 91, 5-{5-[2S-(4-Fluoro-phenyl)-4-methyl-piperazin-1-ylmethyl]-pyridin-3-yl}-1H-indole acetate] | 0.41 | 0.6 | – | –
3 | CN1CCN(Cc2cc(-c3ccc4[nH]ccc4c3)ccc2F)[C@@H](c2ccc(F)cc2)C1 [Example 92, 5-{4-Fluoro-3-[2S-(4-fluoro-phenyl)-4-methyl-piperazin-1-ylmethyl]-phenyl}-1H-indole] | 0.53 | – | – | –
4 | CN(C)CCN(Cc1ccccc1)Cc1cccc(-c2ccc3[nH]c(=O)oc3c2)c1.Cl [Example 3] | < 1 | 0.9 | 100 | –
5 | CN1CCN(Cc2cc(-c3ccc4[nH]ncc4c3)co2)[C@@H](c2ccc(F)cc2)C1 [Example 161, 5-{5-[2S-(4-Fluoro-phenyl)-4-methyl-piperazin-1-ylmethyl]-furan-3-yl}-1H-indazole] | 0.16 | – | – | –
6 | CN(C)CCN(Cc1cc(-c2ccc3[nH]ccc3c2)ccc1F)C(=O)c1ccc(F)cc1 [Example 26] | 0.82 | 0.68 | – | –
7 | CN1CCC(N(Cc2cccc(-c3ccc4[nH]ccc4c3)c2)C(=O)c2ccc(F)cc2)CC1 [Example 27] | 0.59 | 0.7 | – | –
8 | CN1CCC(N(Cc2cc(-c3ccc4[nH]ccc4c3)ccc2F)C(=O)c2ccc(F)cc2)CC1 [Example 34] | 1.09 | 1.25 | – | –
9 | CC(=O)O.Fc1ccc(-c2ccc3[nH]ncc3c2)cc1CN1CCNC[C@@H]1c1cccs1 [Example 44] | 0.54 | – | – | –
10 | CC(=O)O.CN1CCN(Cc2cc(-c3ccc4[nH]c(=O)oc4c3)co2)[C@@H](c2ccc(F)cc2)C1 [Example 95, 6-{5-[2S-(4-Fluorophenyl)-4-methylpiperazine-1-ylmethyl]-furan-3-yl}-3H-benzoxazol-2-one] | 0.5 | 1.9 | – | –
11 | CN1CCN(Cc2cc(-c3ccc4[nH]ccc4c3)co2)[C@@H](c2ccc(F)cc2)C1.O=C(O)C(F)(F)F [Example 94, 5-{5-[2S-(4-Fluoro-phenyl)-4-methyl-piperazin-1-ylmethyl]-furan-3-yl}-1H-indole; compound with trifluoro-acetate] | ~3 | – | – | 50
12 | O=C(c1ccc(F)cc1)N(CCN1CCCC1)Cc1cc(F)cc(-c2ccc3[nH]ccc3c2)c1 [Example 133, 4-Fluoro-N-[3-fluoro-5-(1H-indol-5-yl)-benzyl]-N-(2-pyrrolidin-1-yl-ethyl)-benzamide] | 0.92 | – | – | –
13 | Cc1cc2cc(-c3ccc(F)c(CN(CCN(C)C)C(=O)c4ccc(F)cc4)c3)ccc2[nH]1 [Example 23] | 0.16 | 0.37 | – | –
14 | O=C(c1ccc(F)cc1)N(CCN1CCCC1)Cc1cc(-c2ccc3[nH]ccc3c2)ccc1F [Example 20, 4-Fluoro-N-[2-fluoro-5-(1H-indol-5-yl)-benzyl]-N-(2-pyrrolidin-1-yl-ethyl)-benzamide] | 0.27 | 0.32 | – | –
15 | Fc1ccc(-c2ccc3[nH]ncc3c2)cc1CN1CCNCC1c1cccs1 (stereo not drawn) [Example 47] | ~3 | 1.24 | – | 50
16 | CC(=O)O.CN1CCN(Cc2cncc(-c3ccc4[nH]c(=O)oc4c3)c2)[C@@H](c2ccc(F)cc2)C1 [Example 98, 6-{5-[2S-(4-Fluoro-phenyl)-4-methyl-piperazin-1-ylmethyl]-pyridin-3-yl}-3H-benzooxazol-2-one acetate] | 0.49 | 1.2 | – | –
17 | CN1CCC(N(Cc2cccc(-c3ccc4[nH]ccc4c3)c2)C(=O)c2cccs2)CC1 [Example 28] | – | 0.7 | – | –
18 | CN(C)CCN(Cc1ccccc1)Cc1cccc(-c2cnc3c(c2)OCC(=O)N3)c1 [Example 7] | – | 210 | – | –
19 | Fc1ccc([C@H]2CNCCN2Cc2cc(-c3ccc4[nH]ccc4c3)ccc2F)cc1 [Example 174, 5-{4-Fluoro-3-[2S-(4-fluoro-phenyl)-piperazin-1-ylmethyl]-phenyl}-1H-indole acetate] | – | 0.9 | – | –
20 | Fc1ccc([C@H]2CNCCN2Cc2cc(-c3ccc4[nH]ncc4c3)ccc2F)cc1 [Example 42, {4-Fluoro-3-[2S-(4-fluoro-phenyl)-piperazin-1-ylmethyl]-phenyl}-1H-indazole] | 1.73 | 0.61 | – | –
21 | Fc1ccc(CN(Cc2cc(-c3ccc4[nH]ncc4c3)ccc2F)C2CCNCC2)cc1 [Example 82] | – | 0.51 | – | –
22 | O=C(c1ccc(F)cc1)N(CCN1CCCC1)Cc1cc(-c2ccc3[nH]c(=O)oc3c2)ccc1F [Example 21] | < 3 | 0.26 | – | 60
23 | O=c1[nH]c2ccc(-c3coc(CN4CCNC[C@@H]4c4ccc(F)cc4)c3)cc2o1 [Example 117, 6-{5-[2S-(4-Fluoro-phenyl)-piperazin-1-ylmethyl]-furan-3-yl}-3H-benzooxazol-2-one acetate] | – | 4.79 | – | –
24 | CN1CCN(Cc2cc(-c3ccc4[nH]ncc4c3)ccc2F)[C@@H](c2ccc(F)cc2)C1 [Example 96, 5-{4-Fluoro-3-[2S-(4-fluoro-phenyl)-4-methyl-piperazin-1-ylmethyl]-phenyl}-1H-indazole] | – | 0.89 | – | –
25 | CN(C)CCN(Cc1ccccc1)Cc1cccc(-c2ccc3[nH]cnc3c2)c1 [Example 18] | – | 74.8 | – | –
26 | CC(C)N1CCC(N(Cc2cc(-c3ccc4[nH]nnc4c3)ccc2F)C(=O)c2ccc(F)cc2)CC1 [Example 67, N-[5-(1H-Benzotriazol-5-yl)-2-fluoro-benzyl]-4-fluoro-N-(1-isopropyl-piperidin-4-yl)-benzamide] | – | 2.16 | – | –
27 | CN(C)CCN(Cc1cc(-c2ccc3[nH]c(=O)oc3c2)ccc1F)C(=O)c1ccc(F)cc1 [Example 104, N-(2-Dimethylamino-ethyl)-4-fluoro-N-[2-fluoro-5-(2-oxo-2,3-dihydro-benzooxazol-6-yl)-benzyl]-benzamide] | 6.36 | 0.31 | – | –
28 | CN(C)CCN(Cc1cccc(-c2ccc3[nH]c(=O)oc3c2)c1)C(=O)c1ccccc1 [Example 24] | – | 0.56 | – | –
